In assay [1] the test system is ribosomes on endogenous globin mRNAs in RRL. The experiment in a line: Polysome profiling of RRL translating endogenous mRNA. The assay is classed as biochemical, rabbit. Particulars: 4 μM PR20, 4 μM GR20, 1 mM GDPCP; 5 min. The procedure:
Polysome profiles were obtained using RRL untreated with nuclease, so that it contained endogenous mRNA. 100 μl reactions containing 50% RRL (Green Hectare) 30 μM hemin (Sigma), 75 mM KCl, 0.5 mM MgCl2, 1 mM ATP, 0.2 mM GTP, 2.1 mg/ml creatine phosphate, 30 μM of L-amino acid mix, 15 mg/ml yeast tRNA, 6 mM BME and, when appropriate, translation inhibitors (4 μM PR20, 4 μM GR20, cycloheximide, 40 μM harringtonine, or 1 mM GDPCP with 1 mM MgCl2) were assembled on ice. To start translation, the reactions were warmed in a heat block at either 30 °C or 37 °C as noted. After 5 min, reactions were terminated by addition of 100 μl of ice-cold Stop Buffer (50 mM Hepes-KOH pH 7.4, 150 mM KOAc, 10 mM Mg(OAc)2, and 200 μg/ml cycloheximide). The stopped reactions were applied to 10–50% sucrose gradients in Gradient Buffer (50 mM Hepes-KOH pH 7.4, 150 mM KOAc, 10 mM Mg(OAc)2, 2 mM DTT, and 100 μg/ml cycloheximide) and spun in an SW-41 rotor (Beckman Coulter) at 197,568xg (avg) for 2 h at 4 °C. Gradients were pumped on a Gradient Station (BioComp Instruments) at a pump rate of 0.29 mm/min and the absorbance at 254 nm was measured by an Econo UV monitor (Biorad) zeroed with 10% sucrose-gradient buffer. The traces were output as CSV files and imported into GraphPad Prism, where the 80S peaks were aligned. Controls were highly reproducible day-to-day. Each experimental condition is shown compared to concurrent, uninhibited control.

The subject of assay [2] is translation in E. coli cell lysates. The experiment in a line: Nanoluciferase translation in E. coli cell lysate (NEBExpress). Format: biochemical. Particulars: n=3. As for the experimental part: E. coli cell lysates (NEBExpress, NEB) were used to investigate bacterial translation inhibition by GR20 and PR20. We monitored the translation of an in vitro transcribed mRNA encoding a Shine-Dalgarno sequence preceding the nanoluciferase (Promega) open reading frame. The mRNA was prepared by in vitro transcription of a PCR-template obtained by amplifying the nanoluciferase open reading frame from the plasmid described in reference with the following primers: T7 + SD-forward: […], based on the pet28a+ plasmid and reverse: […]. […] Then 1 μl of water or different concentrations (10-100 μM) of PR20 or GR20 or 200 μM erythromycin were added and the plate was incubated at 37 °C for 5 min inside of an Infinite m1000 pro microplate reader (Tecan). Next, the nanoluciferase mRNA was added to the final concentration of 20 ng/μl in a 10-μl reaction. Translation reactions were incubated at 37 °C for 20 min, luminescence of the samples was continuously measured by the microplate reader to record the time course of protein synthesis. Time progress curves, obtained in the experiments, were processed in MS Excel, and the rate of change of the relative light units between 100 and 200 s was measured, the mean and SEM of three experiments is reported in column graph in Supplementary Fig. 2a.

The next assay deals with E. coli 70S ribosomes. The experiment in a line: Erythromycin competition in the puromycin assay on 70S ribosomes. The assay is classed as biochemical. Particulars: 20 μM erythromycin and/or 2 μM PR20, 30 nM 70S, quenched at 300 s. As for the experimental part:
The assay was performed as described above for the puromycin kinetics, except that the 70S ribosomes were pre-incubated with 22 μM erythromycin for 5 min prior to adding PR20. The stock solution of erythromycin contained 2 mM erythromycin in ethanol, so the control reaction (70S with no erythromycin) and the reactions with erythromycin were prepared to contain the same amount of ethanol (1%). The final concentrations after addition of puromycin were: 30 nM 70S, 66 nM [^35S]-fMet-tRNA^fMet, 1 μM mRNA, 2 μM PR20 (no PR20 in the control reaction), 20 μM erythromycin (or no erythromycin in a control reaction), 50 µM puromycin (in 20 mM Tris-acetate (pH 7.0), 100 mM NH4OAc, 12 mM Mg(OAc)2 and 1% ethanol). Samples were quenched at 300 s when the uninhibited reaction had reached a plateau.

The values that follow come from PMC9120013, “Ribosome inhibition by C9ORF72-ALS/FTD-associated poly-PR and poly-GR proteins revealed by cryo-EM” (Nature Communications, 2022).

Ends that are not written are not given here.

Take `N=C(N)NCCC[C@H](NC(=O)CNC(=O)[C@H](CCCNC(=N)N)NC(=O)CNC(=O)[C@H](CCCNC(=N)N)NC(=O)CNC(=O)[C@H](CCCNC(=N)N)NC(=O)CNC(=O)[C@H](CCCNC(=N)N)NC(=O)CNC(=O)[C@H](CCCNC(=N)N)NC(=O)CNC(=O)[C@H](CCCNC(=N)N)NC(=O)CNC(=O)[C@H](CCCNC(=N)N)NC(=O)CNC(=O)[C@H](CCCNC(=N)N)NC(=O)CNC(=O)[C@H](CCCNC(=N)N)NC(=O)CNC(=O)[C@H](CCCNC(=N)N)NC(=O)CNC(=O)[C@H](CCCNC(=N)N)NC(=O)CNC(=O)[C@H](CCCNC(=N)N)NC(=O)CNC(=O)[C@H](CCCNC(=N)N)NC(=O)CNC(=O)[C@H](CCCNC(=N)N)NC(=O)CNC(=O)[C@H](CCCNC(=N)N)NC(=O)CNC(=O)[C@H](CCCNC(=N)N)NC(=O)CNC(=O)[C@H](CCCNC(=N)N)NC(=O)CNC(=O)[C@H](CCCNC(=N)N)NC(=O)CNC(=O)[C@H](CCCNC(=N)N)NC(=O)CN)C(=O)O` [GR20]: the “polysome profile, half-mer peaks” value in assay [1] is on record as “appearance of half-mer peaks”. In assay [2], the “concentration needed to inhibit translation in E. coli lysate” value is on record as greater than 10 µM.

Consider “PRPRPRPRPRPRPRPRPRPRPRPRPRPRPRPRPRPRPRPR [PR20]”, for which the fMet-puromycin formed with E. coli 70S ribosomes (first column (replicate 1)) stood at 254; in the assay with E. coli 70S ribosomes (second column (replicate 2)), 277. Further, the “polysome profile, half-mer peaks” value in assay [1] is “appearance of half-mer peaks”. Moreover, the “concentration needed to inhibit translation in E. coli lysate” value in assay [2] is no less than 5 µM.
